Structures are written as SMILES.

For this assay, the target named is T1, myeloperoxidase (MPO) (Homo sapiens, UniProt P05164).
T1 sequence (P05164 49-745): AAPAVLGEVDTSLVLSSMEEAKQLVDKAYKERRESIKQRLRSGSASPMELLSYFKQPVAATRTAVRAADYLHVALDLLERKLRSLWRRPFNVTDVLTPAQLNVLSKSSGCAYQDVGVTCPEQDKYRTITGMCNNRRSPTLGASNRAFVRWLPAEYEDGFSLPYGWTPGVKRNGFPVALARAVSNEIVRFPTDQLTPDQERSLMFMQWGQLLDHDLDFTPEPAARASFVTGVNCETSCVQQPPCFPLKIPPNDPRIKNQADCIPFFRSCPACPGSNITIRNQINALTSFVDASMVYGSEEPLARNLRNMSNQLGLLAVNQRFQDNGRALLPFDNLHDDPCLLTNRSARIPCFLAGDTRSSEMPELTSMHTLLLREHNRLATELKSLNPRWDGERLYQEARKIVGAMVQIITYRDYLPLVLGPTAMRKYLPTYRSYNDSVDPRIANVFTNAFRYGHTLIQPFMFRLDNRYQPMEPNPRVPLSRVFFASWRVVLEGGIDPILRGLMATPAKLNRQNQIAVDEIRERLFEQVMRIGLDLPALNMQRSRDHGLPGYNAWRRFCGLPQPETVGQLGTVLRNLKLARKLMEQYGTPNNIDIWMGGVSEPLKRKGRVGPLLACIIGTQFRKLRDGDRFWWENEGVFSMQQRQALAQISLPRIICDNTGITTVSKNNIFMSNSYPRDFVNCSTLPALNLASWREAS
Put plainly: MPO peroxidation assay (Amplex Red assay). The following applies: MPO peroxidation, potency range class; read-out: Amplex Red IC50. The class given is biochemical. The essentials: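 MPO (200 pM) with 40 nM H2O2 was preincubated 10 min at room temperature with inhibitor in 100 mM KPi pH 7.4. A mix of Amplex Red (200 μM) and H2O2 (10 mM) was then added and resorufin fluorescence read kinetically for 15 min. Slopes over 180–540 s gave % inhibition and IC50 via a four-parameter Hill fit.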
One may read the IC50 as the concentration needed to halve the response being measured. Turning to `Nc1cc(OCc2cc(C(=O)N3CC[C@@H](O)C3)ccc2F)c2nn[nH]c2n1` [Example 166, (R)-(3-((5-amino-3H-[1,2,3]triazolo [4,5-b]pyridin-7-yloxy)methyl)-4-fluorophenyl)(3-hydroxypyrrolidin-1-yl)methanone], the half-inhibitory concentration (IC50) was in the range of 101 to 999 nM.
Next, `Nc1cc(OCc2cc(C(=O)N3CCNC(=O)C3)ccc2F)c2nn[nH]c2n1` [Example 169, 4-(3-((5-amino-3H-[1,2,3]triazolo [4,5-b]pyridin-7-yloxy)methyl)-4-fluorobenzoyl)piperazin-2-one]: 101 to 999 nM.
The result for `NC(=O)CCNC(=O)c1ccc(F)c(COc2cc(N)nc3[nH]nnc23)c1` [Example 170, N-(3-amino-3-oxopropyl)-3-((5-amino-3H-[1,2,3]triazolo[4,5-b]pyridin-7-yloxy)methyl)-4-fluorobenzamide] reads 1 to 100 nM; that for `COC(=O)c1ccc(Cl)c(COc2cc(N)nc3[nH]nnc23)c1` [Example 171, Methyl 3-((5-amino-3H-[1,2,3]triazolo[4,5-b]pyridin-7-yloxy)methyl)-4-chlorobenzoate], 1 to 100 nM.
The result for `Nc1cc(OCc2cc(C(=O)NCc3ccccc3)ccc2Cl)c2nn[nH]c2n1` [Example 173, 3-((5-amino-3H-[1,2,3]triazolo [4,5-b]pyridin-7-yloxy)methyl)-N-benzyl-4-chlorobenzamide] reads 1 to 100 nM; that for `CN(C(=O)c1ccc(Cl)c(COc2cc(N)nc3[nH]nnc23)c1)c1ccccc1` [Example 175, 3-((5-amino-3H-[1,2,3]triazolo [4,5-b]pyridin-7-yloxy)methyl)-4-chloro-N-methyl-N-phenylbenzamide], 1 to 100 nM; that for `Nc1cc(OCc2cc(C(=O)N3CCC(O)C3)ccc2Cl)c2nn[nH]c2n1` (stereo not shown) [Example 176, (3-((5-amino-3H-[1,2,3]triazolo [4,5-b]pyridin-7-yloxy)methyl)-4-chlorophenyl)(3-hydroxypyrrolidin-1-yl)methanone], 101 to 999 nM.
For `Nc1cc(OCc2cc(C(=O)N3CCC[C@@H]3CO)ccc2Cl)c2nn[nH]c2n1` [Example 178, (R)-(3-((5-amino-3H-[1,2,3]triazolo[4,5-b]pyridin-7-yloxy)methyl)-4-chlorophenyl)(2-(hydroxymethyl)pyrrolidin-1-yl)methanone], the IC50 fell in the range of 101 to 999 nM.
For `Nc1cc(OCc2cc(C(=O)N3CCC[C@H]3CO)ccc2Cl)c2nn[nH]c2n1` [Example 179, (S)-(3-((5-amino-3H-[1,2,3]triazolo[4,5-b]pyridin-7-yloxy)methyl)-4-chlorophenyl)(2-(hydroxymethyl)pyrrolidin-1-yl)methanone], the IC50 fell in the range of 101 to 999 nM.
As to `Nc1cc(OCc2cc(C(=O)N3CCC3)ccc2Cl)c2nn[nH]c2n1` [Example 182, (3-((5-amino-3H-[1,2,3]triazolo [4,5-b]pyridin-7-yloxy)methyl)-4-chlorophenyl)(azetidin-1-yl)methanone], the IC50 is 101 to 999 nM.
The result for `Nc1cc(OCc2cc(C(=O)N(CCO)Cc3ccccc3)ccc2Cl)c2nn[nH]c2n1` [Example 183, 3-((5-amino-3H-[1,2,3]triazolo [4,5-b]pyridin-7-yloxy)methyl)-N-benzyl-4-chloro-N-(2-hydroxyethyl)benzamide] reads 101 to 999 nM.
For `CCN(CCO)C(=O)c1ccc(Cl)c(COc2cc(N)nc3[nH]nnc23)c1` [Example 184, 3-((5-amino-3H-[1,2,3]triazolo [4,5-b]pyridin-7-yloxy)methyl)-4-chloro-N-ethyl-N-(2-hydroxyethyl) benzamide], the IC50 was in the range of 101 to 999 nM.
The result for `CN(C)C(=O)c1ccc(Cl)c(COc2cc(N)nc3[nH]nnc23)c1` [Example 185, 3-((5-amino-3H-[1,2,3]triazolo [4,5-b]pyridin-7-yloxy)methyl)-4-chloro-N,N-dimethylbenzamide] reads 101 to 999 nM.
Next, `CNC(=O)CNC(=O)c1ccc(Cl)c(COc2cc(N)nc3[nH]nnc23)c1` [Example 187, 3-((5-amino-3H-[1,2,3]triazolo [4,5-b]pyridin-7-yloxy)methyl)-4-chloro-N-(2-(methylamino)-2-oxoethyl)benzamide]: 101 to 999 nM; `Nc1cc(OCc2cc(C(=O)NC3CC3)ccc2Cl)c2nn[nH]c2n1` [Example 188, 3-((5-amino-3H-[1,2,3]triazolo [4,5-b]pyridin-7-yloxy)methyl)-4-chloro-N-cyclopropylbenzamide]: 1 to 100 nM; `CN(CC(N)=O)C(=O)c1ccc(Cl)c(COc2cc(N)nc3[nH]nnc23)c1` [Example 189, N-(2-amino-2-oxoethyl)-3-((5-amino-3H-[1,2,3]triazolo[4,5-b]pyridin-7-yloxy)methyl)-4-chloro-N-methylbenzamide]: 101 to 999 nM.
Regarding `Nc1cc(OCc2cc(C(=O)NCC(F)(F)F)ccc2Cl)c2nn[nH]c2n1` [Example 190, 3-((5-amino-3H-[1,2,3]triazolo [4,5-b]pyridin-7-yloxy)methyl)-4-chloro-N-(2,2,2-trifluoroethyl) benzamide], the IC50 was in the range of 1 to 100 nM.
Next, `CC(O)CNC(=O)c1ccc(Cl)c(COc2cc(N)nc3[nH]nnc23)c1` (stereo not shown) [Example 191, 3-((5-amino-3H-[1,2,3]triazolo [4,5-b]pyridin-7-yloxy)methyl)-4-chloro-N-(2-hydroxypropyl) benzamide]: 1 to 100 nM.
Next, `Nc1cc(OCc2cc(C(=O)NCc3ccc[nH]c3=O)ccc2Cl)c2nn[nH]c2n1` [Example 192, 3-((5-amino-3H-[1,2,3]triazolo [4,5-b]pyridin-7-yloxy)methyl)-4-chloro-N-((2-oxo-1,2-dihydropyridin-3-yl)methyl) benzamide]: 1 to 100 nM; `Nc1cc(OCc2cc(C(=O)NC3CCS(=O)(=O)C3)ccc2Cl)c2nn[nH]c2n1` (stereo not shown) [Example 193, 3-((5-amino-3H-[1,2,3]triazolo [4,5-b]pyridin-7-yloxy)methyl)-4-chloro-N-(1,1-dioxidotetrahydrothien-3-yl)benzamide]: 101 to 999 nM.
The result for `COC(=O)c1ccc(COc2cc(N)nc3[nH]nnc23)c(Cl)c1` [Example 194, Methyl 4-((5-amino-3H-[1,2,3]triazolo[4,5-b]pyridin-7-yloxy)methyl)-3-chlorobenzoate] reads 1 to 100 nM.
As for `Nc1cc(OCc2ccc(C(=O)NCc3ccccc3)cc2Cl)c2nn[nH]c2n1` [Example 196, 4-((5-amino-3H-[1,2,3]triazolo[4,5-b]pyridin-7-yloxy)methyl)-N-benzyl-3-chlorobenzamide], the IC50 was 1 to 100 nM.
Next, `Nc1cc(OCc2ccc(C(=O)NC3CC3)cc2Cl)c2nn[nH]c2n1` [Example 197, 4-((5-amino-3H-[1,2,3]triazolo[4,5-b]pyridin-7-yloxy)methyl)-3-chloro-N-cyclopropylbenzamide]: 101 to 999 nM; `Nc1cc(OCc2ccc(C(=O)NCC3CCCCC3)cc2Cl)c2nn[nH]c2n1` [Example 198, 4-((5-amino-3H-[1,2,3]triazolo[4,5-b]pyridin-7-yloxy)methyl)-3-chloro-N-(cyclohexylmethyl)benzamide]: 101 to 999 nM.
The result for `Nc1cc(OCc2ccc(C(=O)N3CCC[C@H]3CO)cc2Cl)c2nn[nH]c2n1` [Example 199, (S)-(4-((5-amino-3H-[1,2,3]triazolo [4,5-b]pyridin-7-yloxy)methyl)-3-chlorophenyl)(2-(hydroxymethyl)pyrrolidin-1-yl)methanone] reads 101 to 999 nM; that for `CC(NC(=O)c1ccc(COc2cc(N)nc3[nH]nnc23)c(Cl)c1)c1ccccc1` (stereo not shown) [Example 201, 4-((5-amino-3H-[1,2,3]triazolo[4,5-b]pyridin-7-yloxy)methyl)-3-chloro-N-(1-phenylethyl)benzamide], 1 to 100 nM; that for `CN(C)CCNC(=O)c1ccc(COc2cc(N)nc3[nH]nnc23)c(Cl)c1` [Example 202, 4-((5-amino-3H-[1,2,3]triazolo[4,5-b]pyridin-7-yloxy)methyl)-3-chloro-N-(2-(dimethylamino)ethyl) benzamide], 1 to 100 nM.
The result for `CN(C(=O)c1ccc(COc2cc(N)nc3[nH]nnc23)c(Cl)c1)c1ccccc1` [Example 203, 4-((5-amino-3H-[1,2,3]triazolo[4,5-b]pyridin-7-yloxy)methyl)-3-chloro-N-methyl-N-phenylbenzamide] reads 1 to 100 nM; that for `CN(Cc1ccccc1)C(=O)c1ccc(COc2cc(N)nc3[nH]nnc23)c(Cl)c1` [Example 204, 4-((5-amino-3H-[1,2,3]triazolo[4,5-b]pyridin-7-yloxy)methyl)-N-benzyl-3-chloro-N-methylbenzamide], 1 to 100 nM; that for `Nc1cc(OCc2ccc(C(=O)NC3CCC3)cc2Cl)c2nn[nH]c2n1` [Example 205, 4-((5-amino-3H-[1,2,3]triazolo[4,5-b]pyridin-7-yloxy)methyl)-3-chloro-N-cyclobutylbenzamide], 1 to 100 nM.
`Nc1cc(OCc2ccc(C(=O)N3CCCCC3c3ccccc3)cc2Cl)c2nn[nH]c2n1` (stereo not shown) [Example 206]: the IC50 fell in the range of 101 to 999 nM.

The record behind these values is patent US10316035B2, “Triazolopyridine inhibitors of myeloperoxidase” (BRISTOL-MYERS SQUIBB COMPANY, priority 2015, dated 2019).
